The values below come from article PMC2361661 (British Journal of Cancer, 2005).

By AUC is commonly meant the area under the concentration-time curve, a measure of exposure. Usually Cmax stands for the highest concentration seen after dosing. One may read the Tmax as the time from dosing to the highest level. For orientation: Vss means a proportionality between amount in the body and measured concentration, not a real space. The low end stands for confinement near the circulation, the high end for extensive tissue distribution.

Details of series [1]: method as in Plummer et al, 2003. The following applies: ref Plummer et al, 2003, cited from earlier work; for AUC: mass spectroscopy.
The conditions of series [2]: cited from earlier work.
A short description of a further series: clinical. The following applies: human, plasma.
A short description of series [3]: BGC9331 plasma pharmacokinetics by ELISA in phase I patients. The following applies: for Median Cmax / Median plasma clearance: ±s.d.; for AUClast / Cl_obs / Cmax / HL_Lambda_z / Vz_obs: BGC9331 65 mg m^−2, carboplatin AUC 5. (An ELISA detects its analyte on a solid surface through an enzyme-linked reagent.)
Description: (§1) Prior to each assay the plasma samples were centrifuged at 3000 g for 5 min × 2, to sediment precipitants that would block pipette tips.
(§2) All dilutions required for the ELISA were performed by Multiprobe II automated liquid handling equipment (Perkin-Elmer, Cambridge, UK). […] Following further incubation and washing steps, the optical absorbance was read and plotted using a four-parameter logistic curve fitted by nonlinear regression as previously described ([Aherne et al, 2001]).
(§3) PK analysis was performed using WinNonlin Software, version 3.2 (Pharsight Corp., CA, USA). […] The following PK parameters were evaluated: maximum plasma concentration (Cmax), area under the plasma concentration–time curve (AUC), total body clearance (Cl), volume of distribution at steady state (Vss) and the terminal half-life (t1/2).
In another series the test system is ovarian cancer. The following applies: relapsed ovarian cancer, cited from earlier work.
The target in series [4] is T1, thymidylate synthase (TS) (Homo sapiens, UniProt P04818).
T1 construct: endogenous in cells; host or cells: tissues of treated patients (in vivo)
The following applies: ref Ford et al, 2002, cited from earlier work.

Series [5] deals with human ovarian tumour cell lines. The following applies: ref Kelland et al, 1995; cited from earlier work.
Series [6] concerns folyl-polyglutamate synthase (FPGS). Set-up: method as in Jackman et al, 1993. The following applies: compared to RTX; ref Jackman et al, 1993; cited from earlier work.
The nature of series [7]: Carboplatin pharmacokinetics by flameless atomic absorption spectrophotometry (FAAS). The following applies: free carboplatin, carboplatin AUC 5 with BGC9331. The method, then:
Carboplatin was measured by FAAS. This method has been previously described ([LeRoy et al, 1977]). Samples were analysed on a Perkin-Elmer HGA800, AA300 Flameless atomic absorption spectrophotometer, and a Platinum Lumina HCC lamp (Perkin-Elmer, Beaconsfield, UK).
Calibration standards were prepared individually for each assay batch by adding Carboplatin standards to control human plasma and ultrafiltrate. A blank was made using either plasma or ultrafiltrate only. A range of standards was made ranging from 5 to 50 ng ml^−1 Pt (plasma samples) to 10–150 ng ml^−1 Pt (ultrafiltrates).
For plasma analysis, three QCs were included in duplicate, ranging from low (15ng ml^−1 Pt) to medium (25 ng ml^−1 Pt) and high (45 ng ml^−1 Pt), by diluting stock solutions with plasma. For ultrafiltrate analysis low (20 ng ml^−1 Pt), medium (60 ng ml^−1 Pt) and high (120 ng ml^−1 Pt) QCs and stock solutions were diluted with plasma ultrafiltrate. A run was acceptable if four out of six QCs were within 15% of nominal concentration.

[8] abbreviates: dose level 1 (BGC9331 40 mg m^−2, carboplatin AUC 5), day 1.
[9] abbreviates: dose level 1 (BGC9331 40 mg m^−2, carboplatin AUC 5), day 8.
Setting [10] is: dose level 2 (BGC9331 65 mg m^−2, carboplatin AUC 5), day 1.
Setting [11] is: dose level 2 (BGC9331 65 mg m^−2, carboplatin AUC 5), day 8.

“And” between values parts separate entries of the source, which are not always exact repeats. Equal values may be shown once. Read-outs that look alike come from different tables or passages of the source.

T1 sequence (P04818 2-313 limits assumed): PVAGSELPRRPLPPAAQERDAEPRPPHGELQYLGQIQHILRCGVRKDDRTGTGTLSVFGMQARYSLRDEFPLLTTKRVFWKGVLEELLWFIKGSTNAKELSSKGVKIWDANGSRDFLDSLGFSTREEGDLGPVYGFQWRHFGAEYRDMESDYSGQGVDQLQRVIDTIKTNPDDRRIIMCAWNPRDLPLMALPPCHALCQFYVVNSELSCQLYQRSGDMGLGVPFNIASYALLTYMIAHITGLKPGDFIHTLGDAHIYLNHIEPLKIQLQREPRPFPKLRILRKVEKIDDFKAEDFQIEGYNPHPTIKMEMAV
Description for clinical: as §1, §2, §3

On to `C#CCN(Cc1cc2c(=O)[nH]c(C)nc2cc1C)c1ccc(C(=O)N[C@@H](CCc2nnn[nH]2)C(=O)O)c(F)c1` [BGC9331], for which the AUC in series [1] (BGC9331 monotherapy 42 mg m^−2) is 176 µg·h/mL; in [1] (BGC9331 monotherapy 69 mg m^−2), 322 µg·h/mL; in “clinical” (40 mg) it was 110 µg·h/mL; in “clinical” (65 mg), 140 µg·h/mL. Further, the Cmax in series [1] (BGC9331 monotherapy 42 mg m^−2) is 10400 ng/mL; in series [1] (BGC9331 monotherapy 69 mg m^−2) it was 19100 ng/mL; in “clinical” (40 mg) it was 7260 ng/mL; in the series “clinical” (65 mg), 10400 ng/mL; in [3] (patient 4, administration 1), 16800 ng/mL; in series [3] (patient 4, administration 2), 10400 ng/mL. Moreover, the Cmax in [3] (patient 5, administration 1) was determined as 16600 ng/mL; in series [3] (patient 5, administration 2) it was 16700 ng/mL; in series [3] (patient 6, administration 2), 9300 ng/mL. Moreover, the “patients with grade 3 or 4 neutropaenia” value in series [2] (BGC9331 130 mg m^−2 days 1 and 8 with cisplatin 75 mg m^−2, ref Bilenker et al, 2004) was “three of the four”. In addition, in [2] (previous studies, ref Rader et al, 2003), the “patients affected by diarrhoea” value is given as 36%. Further, the “recommended single-agent phase II dose” value in series [2] (ref Plummer et al, 2003) is given as 130 mg m^−2. Also, in the series “clinical” (65 mg), the Tmax was found to be 30 min. Moreover, the “Median Cmax” value in series [3] (setting [8]) was 11200 ± 2500 ng/mL and 11210 ng/mL; in series [3] (setting [9]), 7300 ± 5000 ng/mL; in [3] (setting [10]), 16500 ± 2400 ng/mL and 16540 ng/mL; in [3] (setting [11]) it was 10400 ± 4000 ng/mL. Besides, the Median plasma clearance in series [3] (setting [8]) was determined as 478 ± 61 mL/h; in series [3] (setting [9]), 971 ± 265 mL/h; in [3] (setting [10]), 1197 ± 580 mL/h; in [3] (setting [11]), 746 ± 584 mL/h. The AUClast in series [3] (patient 4, administration 1) amounted to 90.4 µg·mL/h; in series [3] (patient 4, administration 2) it was 68.4 µg·mL/h; in series [3] (patient 5, administration 1), 264.6 µg·mL/h; in series [3] (patient 5, administration 2), 193.3 µg·mL/h; in series [3] (patient 6, administration 2), 141.3 µg·mL/h. The Cl_obs in [3] (patient 4, administration 1) is 1197.5 mL/h; in [3] (patient 4, administration 2), 1646.5 mL/h; in [3] (patient 5, administration 1), 378.4 mL/h; in series [3] (patient 5, administration 2), 549.2 mL/h; in [3] (patient 6, administration 2) it was 746.0 mL/h. The HL_Lambda_z in [3] (patient 4, administration 1) is reported as 18.2 h; in series [3] (patient 4, administration 2), 27.8 h; in series [3] (patient 5, administration 1) it was 25.5 h; in series [3] (patient 6, administration 2) it was 28.1 h. Further, the Vz_obs stood at 31423.8 mL in series [3] (patient 4, administration 1); 66088.6 mL in [3] (patient 4, administration 2); 13891.3 mL in series [3] (patient 5, administration 1); 17208.1 mL in [3] (patient 5, administration 2); 30257.3 mL in [3] (patient 6, administration 2).
Take `Cc1nc2ccc(CN(C)c3ccc(C(=O)N[C@@H](CCC(=O)O)C(=O)O)s3)cc2c(=O)[nH]1` [raltitrexed]: the response rate in the series on ovarian cancer (ref Gore et al, 1995) is 7%. Also, the response rate with ovarian cancer (ref Muggia et al, 1998) is 11%. For the same molecule, in series [4] (RTX on a 21-day cycle), the “day on which dUrd reapproaches baseline” value was around 15 days and the “peak percentage rise of dUrd” value was 349±128%. Besides, the “cross-resistance to platinum-based agents” value in [5] is given as “non crossresistance”.
As for `O=c1[nH]cc(F)c(=O)[nH]1` [5-FU, 5-fluorouracil], the response rate with ovarian cancer (ref Look et al, 1995) is reported as 14%. The “peak dUrd elevation” value in [4] (bolus 5-FU) was 235±125%; in [4] (infusional 5-FU), 228±86%.
Regarding `C#CCN(Cc1ccc2nc(N)[nH]c(=O)c2c1)c1ccc(C(=O)N[C@@H](CCC(=O)O)C(=O)O)cc1` [CB3717, N10-propargyl-5,8-dideazafolic acid], the “cross-resistance to platinum-based agents” value in [5] was “non crossresistance”. Moreover, the “substrate for FPGS” value in series [6] was “relatively poor substrate”.
Regarding `N.N.O=C([O-])C1(C(=O)[O-])CCC1.[Pt+2]` [carboplatin], the Alpha_HL in series [7] (patient 1, dose level 1) was 2.2 h; in series [7] (patient 3, dose level 1) it was 1.2 h; in series [7] (patient 4, dose level 2) it was 2.4 h; in series [7] (patient 5, dose level 2), 1.5 h; in series [7] (patient 6, dose level 2), 1.8 h; in [7] (patient 14, dose level 3), 0.4 h. The Beta_HL is given as 50.3 h in series [7] (patient 1, dose level 1); 8.2 h in series [7] (patient 3, dose level 1); 100.9 h in series [7] (patient 4, dose level 2); 92.0 h in [7] (patient 5, dose level 2); 60.4 h in series [7] (patient 6, dose level 2); 2.6 h in series [7] (patient 14, dose level 3). For the same molecule, the CL in [7] (patient 1, dose level 1) was determined as 8.7 L/h; in series [7] (patient 3, dose level 1), 4.8 L/h; in series [7] (patient 4, dose level 2), 7.0 L/h; in series [7] (patient 5, dose level 2), 6.0 L/h; in series [7] (patient 6, dose level 2) it was 6.7 L/h; in [7] (patient 14, dose level 3), 6.1 L/h. Moreover, the V2 in series [7] (patient 1, dose level 1) stood at 91.2 L; in series [7] (patient 3, dose level 1), 15.1 L; in series [7] (patient 4, dose level 2), 158.5 L; in [7] (patient 5, dose level 2), 101.0 L; in series [7] (patient 6, dose level 2) it was 88.9 L; in series [7] (patient 14, dose level 3), 8.6 L. Further, the distribution volume (Vss) stood at 123.3 L in series [7] (patient 1, dose level 1); 27.1 L in series [7] (patient 3, dose level 1); 186.5 L in [7] (patient 4, dose level 2); 115.6 L in series [7] (patient 5, dose level 2); 109.7 L in series [7] (patient 6, dose level 2); 16.5 L in [7] (patient 14, dose level 3).
